Columns and labels:
FAPα/A549 cells = assay: Uptake of 211At-labeled FAPI derivatives into A549 and FAPα/A549 cells; assay type: cell-based, human; conditions: for uptake level in dependence on FAPα expression: A549 (low FAPα) vs FAPα/A549 (high FAPα), 30 min; for competitive inhibition by addition of the corresponding unlabeled form: A549 / FAPα/A549 cells
Source text: (§1) Human non-small cell lung cancer cell lines (A549), human triple-negative (estrogen and progesterone receptors which are hormone receptors, as well as HER2 protein, are all absent) breast cancer cell lines (MDA-MB-231), and A549 cells and MDA-MB-231 cells, each transfected with the human fibroblast activation protein (FAPα) gene (FAPα/A549, FAPα/MDA-MB-231) were used in the experiments as cancer cells with low FAPα expression and cancer cells with high FAPα expression (mimic after high-order histogenesis), respectively. For each type, the cells were seeded in a 24-well plate at 2×10^4 cells per well and cultured for 2 days. An appropriate amount of two ^211At-labeled FAPI derivatives (PIP(1,H) […], PIP-amide(1,H) (Example 14)) were added to each type of the above cells, respectively, and cultured for 30 min. The supernatant was removed by aspiration, and the cells were washed with PBS(−), and then 0.1N sodium hydroxide solution was added to lyse the cells, and the intracellular radioactivity was measured by a gamma counter. The radioactivity count was corrected per unit protein amount (counts/μg protein). […] Considering that the uptake level into human embryonic kidney-derived cells (HEK293) was about 20 counts/μg protein at most, based on the results of PIP(1,F) and the like in Experimental Example 1, it can be said that cancer cells take up more FAPI derivatives than non-cancer cells.

FAPα/MDA-MB-231 cells = assay: Uptake of 211At-labeled FAPI derivatives into MDA-MB-231 and FAPα/MDA-MB-231 cells; assay type: cell-based, human; conditions: for uptake level in dependence on FAPα expression: MDA-MB-231 (low FAPα) vs FAPα/MDA-MB-231 (high FAPα), 30 min; for competitive inhibition by addition of the corresponding unlabeled form: MDA-MB-231 / FAPα/MDA-MB-231 cells
Source text: as §1

[1] = Changes in body weight of human pancreatic cancer-transplanted mice; assay type: in vivo, nude mice; conditions: intravenous 1 MBq per mouse, N=4, three weeks, vs saline control
Procedure: (§2) Human pancreatic cancer cells (PANC-1) were subcutaneously administered at 1×10^7 cells to nude mice (male, 6-weeks old) to generate pancreatic cancer-transplanted mice. The mice were intravenously injected with ^211At(C1)-Pip-6Qui-FAPI(H) (PIP(1,H), Example 2) or 211At(C1)-PEG2-6Qui-FAPI(H) (PEG(1,H), Example 6) at 1 MBq per mouse (N=4). Physiological saline was administered to the control group (Control (Saline)) (N=4).

[2] = test system: Human pancreatic cancer cells (PANC-1); assay: Inhibitory effect on tumor growth in human pancreatic cancer-transplanted mice; assay type: in vivo, nude mice; conditions: PANC-1 subcutaneous, intravenous 1 MBq per mouse, N=4, three weeks, vs saline control
Procedure: as §2

[3] = test system: FAPα/293 cells (293 cells transfected with the human fibroblast activation protein (FAPα) gene); assay: Uptake of 211At-labeled FAPI derivatives into FAPα/293 cells; assay type: cell-based; conditions: cultured 30 min, gamma counter, rank order of the three highest of eight derivatives
Procedure: Human embryonic kidney 293 cells (HEK293), and 293 cells transfected with the human fibroblast activation protein (FAPα) gene (FAPα/293) were used in the experiment as FAPα-negative and FAPα-positive cells, respectively. For each type, the cells were seeded in a 24-well plate at 2×10^4 cells per well and cultured for 2 days. An appropriate amount of eight ^211At-labeled FAPI derivatives (Gly(1,F) (Example 8), PEG(1,F) (Example 5), PIP(1,F) (Example 1), PIP(1,H)-8Qui (Example 3), Ac-PIP (Example 13), PEG4(1,H) (Example 7), GlcN-PEG(1,F) (Example 11), PEG(1,H) (Example 6)) were added to each type of the above cells, respectively, and cultured for 30 min. The supernatant was removed by aspiration, and then 0.1N sodium hydroxide solution was added to lyse the cells, and the intracellular radioactivity was measured by a gamma counter. The radioactivity count was corrected per unit protein amount (counts/μg protein). The three compounds with the highest uptake levels into FAPα-positive cells were PIP(1,F)>PIP(1,H)-8Qui>PEG(1,H), in order of […] level.

[4] = Stability of the radiolabeled product; assay type: physicochemical; conditions: alkylene chain length 0, after purification

Compound: N#C[C@@H]1CCCN1C(=O)CNC(=O)c1ccnc2ccc(OCCCN3CCN(C(=O)Cc4ccc([211At])cc4)CC3)cc12 [Example 2, ^211At(C1)-Pip-6Qui-FAPI(H)]
- uptake level in dependence on FAPα expression (FAPα/A549 cells): uptake level increased as FAPα expression increased
- competitive inhibition by addition of the corresponding unlabeled form (FAPα/A549 cells): could be suppressed to a low level
- uptake level (intracellular radioactivity), comparison between derivatives (FAPα/A549 cells; A549 and FAPα/A549 cells, cultured 30 min): slightly higher than that of PIP-amide(1,H)
- uptake level in dependence on FAPα expression (FAPα/MDA-MB-231 cells): uptake level increased as FAPα expression increased
- competitive inhibition by addition of the corresponding unlabeled form (FAPα/MDA-MB-231 cells): could be suppressed to a low level
- uptake level (intracellular radioactivity), comparison between derivatives (FAPα/MDA-MB-231 cells; MDA-MB-231 and FAPα/MDA-MB-231 cells, cultured 30 min): slightly higher than that of PIP-amide(1,H)
- changes in body weight [1]: comparable to that of the control group
- inhibitory effect on tumor growth (tumor size) [2]: superior inhibitory effects on tumor growth compared to the control group

Compound: N#C[C@@H]1CCCN1C(=O)CNC(=O)c1ccnc2c(OCCCN3CCN(C(=O)Cc4ccc([211At])cc4)CC3)cccc12 [Example 3, ^211At(C1)-Pip-8Qui-FAPI(H)]
- uptake levels into FAPα-positive cells (intracellular radioactivity) [3]: PIP(1,F)>PIP(1,H)-8Qui>PEG(1,H)

Compound: N#C[C@@H]1CCCN1C(=O)CNC(=O)c1ccnc2ccc(OCCOCCNC(=O)Cc3ccc([211At])cc3)cc12 [Example 6, ^211At(C1)-PEG2-6Qui-FAPI(H)]
- uptake levels into FAPα-positive cells (intracellular radioactivity) [3]: PIP(1,F)>PIP(1,H)-8Qui>PEG(1,H)
- changes in body weight [1]: comparable to that of the control group
- inhibitory effect on tumor growth (tumor size) [2]: superior inhibitory effects on tumor growth compared to the control group

Compound: N#C[C@@H]1CC(F)(F)CN1C(=O)CNC(=O)c1ccnc2ccc(OCCCN3CCN(C(=O)CCCO[C@@H]4OC(CO)[C@@H](O)C(O)[C@@H]4NC(=O)c4ccc([211At])cc4)CC3)cc12 (stereo partly drawn) [Example 9, ^211At(CO)-GlcN-Pip-6Qui-FAPI(F)]
- stability of the product [4]: low

Compound: N#C[C@@H]1CCCN1C(=O)CNC(=O)c1ccnc2ccc(OCCCN3CCN(C(=O)CCCO[C@@H]4OC(CO)[C@@H](O)C(O)[C@@H]4NC(=O)c4ccc([211At])cc4)CC3)cc12 (stereo partly drawn) [Example 10, ^211At(C0)-GlcN-Pip-6Qui-FAPI(H)]
- stability of the product [4]: low

Compound: N#C[C@@H]1CCCN1C(=O)CNC(=O)c1ccnc2ccc(OCCC(=O)N3CCN(C(=O)Cc4ccc([211At])cc4)CC3)cc12 [Example 14, ^211At(C1)-Pip-amido-6Qui-FAPI(H)]
- uptake level in dependence on FAPα expression (FAPα/A549 cells): uptake level increased as FAPα expression increased
- competitive inhibition by addition of the corresponding unlabeled form (FAPα/A549 cells): could be suppressed to a low level
- uptake level in dependence on FAPα expression (FAPα/MDA-MB-231 cells): uptake level increased as FAPα expression increased
- competitive inhibition by addition of the corresponding unlabeled form (FAPα/MDA-MB-231 cells): could be suppressed to a low level

Source: patent US20260199533A1, “RA[…]-AFFINITY COMPOUND AND USE THEREOF” (Osaka University, priority 2022, published 2026)
